# Measurements: US8440637B2, “Combination treatment for the treatment of hepatitis C virus infection” (priority 2007, dated 2013)
# l = locked nucleic acid (LNA); d = 2'-deoxy (DNA)
# Tests used:
# miR-122a = miR-122a level in transfected Huh-7 cells by miR-122a specific qRT-PCR; type: cell-based, human; settings: transfected at 1 and 100 nM, 24 hours after transfection
# Procedure: The miR-122a expressing cell line Huh-7 was transfected with LNA anti-miR5 at 1 and 100 nM concentrations according to optimized lipofectamine 2000 (LF2000, Invitrogen) protocol (as follows).
# Huh-7 cells were cultivated in Eagles MEM with 10% FBS, 2 mM Glutamax I, 1× non-essential amino acids, Gentamicin 25 μg/ml. The cells were seeded in 6-well plates (300000 cells per well), in a total vol. of 2.5 ml the day before transfection. At the day of transfection a solution containing LF2000 diluted in Optimem (Invitrogen) was prepared (1.2 ml optimem+3.75 μl LF2000 per well, final 2.5 μg LF2000/ml, final tot vol 1.5 ml).
# LNA Oligonucleotides (LNA anti-miRs) were also diluted in optimem. 285 μl optimem+15 μl LNA oligonucleotide (10 μM oligonucleotide stock for final concentration 100 nM and 0.1 μM for final concentration 1 nM) Cells were washed once in optimem then the 1.2 ml optimem/LF2000 mix were added to each well. Cells were incubated 7 min at room temperature in the LF2000 mix where after the 300 μl oligonucleotide optimem solution was added. […]
# miR-122a levels in the RNA samples were assessed on an ABI 7500 Fast real-time PCR instrument (Applied Biosystems, USA) using a miR-122a specific qRT-PCR kit, mirVana (Ambion, USA) and miR-122a primers (Ambion, USA). […]
# miR-122 = experiment: Total plasma cholesterol in hypercholesterolemic and normal mice, long-term treatment; type: in vivo, mouse; settings: 5 mg/kg i.p. twice weekly
# Procedure: (§1) C57BL/6J female mice were fed on high fat diet for 13 weeks before the initiation of the SEQ ID NO: 63 treatment. […] Both hypercholesterolemic and normal mice were treated i.p. twice weekly with 5 mg/kg SEQ ID NO: 63 and the corresponding mismatch control for a study period of 5½ weeks. Blood samples were collected weekly and total plasma cholesterol was measured during the entire course of the study. Upon sacrificing the mice, liver and blood samples were prepared for total RNA extraction, miRNA and mRNA quantification, assessment of the serum transaminase levels, and liver histology.
# C57BL/6J female mice (Taconic M&B Laboratory Animals, Ejby, Denmark) were used. All substances were formulated in physiological saline (0.9% NaCl) to final concentration allowing the mice to receive an intraperitoneal injection volume of 10 ml/kg.
# In the diet induced obesity study, the mice received a high fat (60EN %) diet (D12492, Research Diets) for 13 weeks to increase their blood cholesterol level before the dosing started. The dose regimen was stretched out to 5½ weeks of 5 mg/kg LNA-antimiR™ twice weekly. Blood plasma was collected once a week during the entire dosing period. After completion of the experiment the mice were sacrificed and RNA extracted from the livers for further analysis. Serum was also collected for analysis of liver enzymes.
# Immediately before sacrifice retro-orbital sinus blood was collected in EDTA-coated tubes followed by isolation of the plasma fraction. Total plasma cholesterol was analysed using ABX Pentra Cholesterol CP (Horiba Group, Horiba ABX Diagnostics) according to the manufacturer's instructions.
# [1] = mouse, in vivo
# Procedure: as §1
# Serum from each individual mouse was prepared as follows: Blood samples were stored at room temperature for 2 h before centrifugation (10 min, 3000 rpm at room temperature). After centrifugation, serum was harvested and frozen at −20° C.
# ALT and AST measurement was performed in 96-well plates using ALT and AST reagents from ABX Pentra according to the manufacturer's instructions. In short, serum samples were diluted 2.5 fold with H2O and each sample was assayed in duplicate. After addition of 50 μl diluted sample or standard (multical from ABX Pentra) to each well, 200 μl of 37° C. AST or ALT reagent mix was added to each well. Kinetic measurements were performed for 5 min with an interval of 30 s at 340 nm and 37° C. using a spectrophotometer.
substance,measurement,setting,value
"5′-CcAttGTcaCaCtCC-3′ (antisense CCATTGTCACACTCC; sugars from the 5' end ldlddllddldldll, backbone and methylation of C not given here) [SEQ ID NO: 63]",inhibition of miR-122a (in words),miR-122a,more efficient in inhibiting miR-122a at 1 nM
same,reduction of total plasma cholesterol compared to saline control,"miR-122; hypercholesterolemic mice, after 10 days, sustained during the study",about 30%
same,effect on total plasma cholesterol (in words),miR-122; normal diet mice,not as pronounced
same,ALT level (in words),[1],possibly elevated ALT level
same,alanine and aspartate aminotransferase (ALT and AST) levels compared to saline (in words),[1],No changes
